{
  "source": "patent US20150359884A1",
  "about": "“MULTI-PHOTON ISOMERISATION OF COMBRETASTATINS AND THEIR USE IN THERAPY” (priority 2011, published 2015)",
  "key": {"HeLa cells": {"tested_on": "HeLa cells", "assay": "Fluorescence lifetime imaging (FLIM) of uptake and intracellular concentration in HeLa cells", "conditions": "HeLa cells, 100 μM added", "description": "(§1) Both HeLa and Chinese hamster ovary (CHO) cells were obtained from the European Collection of Cell Cultures. HeLa cells were cultured in MEM medium (Gibco) containing 10% foetal calf serum, penicillin (100 units/mL), streptomycin (100 μg/mL) and glutamine (2 mM). CHO cells were cultured in DMEM (Gibco) with the same additions as for the HeLa cells. For microscopy the adherent cell cultures were grown in 35 mm diameter glass-bottom culture dishes with optical quality glass (MatTek Corporation) and incubated at 37° C. in a humidified atmosphere containing 5% CO2. Human umbilical vein endothelial cells (HUVECs) were obtained from TCS Cellworks. HUVECs were sub-cultured in basal medium (TCS Cellworks) supplemented with antibiotic supplement/amphotericin-B, following the detailed guidelines provided by TCS Cellworks.\nThe fluorescence lifetime imaging system with multiphoton excitation employed lasers for multiphoton excitation consisting of a Ti:Sapphire laser, tuneable between 700 and 1000 nm and providing ca 180 fs pulses at 76 MHz, and an optical parametric oscillator (OPO) pumped by a second Ti:Sapphire laser source. Using the doubled idler output of the OPO, useful energies (>200 mW) could be obtained between 550 and 640 nm. Samples were excited on the stage of Nikon TE2000U inverted microscope using a water immersion ×60 objective of NA 1.2. Using the various microscope ports it was possible to record the fluorescence in a number of ways. The fluorescence signal at one port was relayed to a spectrometer (Acton 275) and CCD setup (Andor iDUS) so that emission spectra and intensities could be recorded. Alternatively the fluorescence signal could be routed via a second port to a time-correlated single photon counting (TCSPC) system (Becker and Hickl SPC-830) allowing fluorescence lifetime measurements and fluorescence lifetime imaging (FLIM), using Becker and Hickl software (SPCImage) for analysis. In FLIM mode the fluorescence was isolated by a suitable narrowband interference filter (400IU25 together with BG3 (Comar)). […] Two photon cross sections were determined using a reference fluorophore as a two photon standard as described by Mathai et al., employing published values of the two-photon cross section for 9-chloroanthracene.\nImages of intracellular distribution of E-combretastatins in cell monolayers were obtained using fluorescence lifetime imaging, in which the rastered excitation laser beam dwells on each pixel for a few milliseconds and at each position records a nanosecond fluorescence lifetime decay curve using the time-correlated single photon counting method. […]\nQuantification of fluorophore concentration from intensity measurements is often difficult."}, "[1]": {"assay": "Fluorescence quantum yields in solvents, UV one-photon excitation", "type": "physicochemical", "conditions": "20° C., 290-300 nm excitation", "description": "Absorption spectra were measured in either a Perkin Elmer Lambda 25 or 950 spectrophotometer. Fluorescence measurements were made with either a Spex Fluoromax or Varian Cary Eclipse spectrofluorimeter using the spectral correction curves supplied by the manufacturers. Fluorescence quantum yields with UV (one-photon) excitation were determined using either 2-aminopyridine (Φref 0.6 [7]) or 9-chloroanthracene (Φref 0.50 in dichloromethane, determined here relative to 9,10-diphenylanthracene in cyclohexane (Φref 0.97) and anthracene in ethanol (Φref 0.28 [8]) as standards. Fluorescence quantum yields were determined from the relative slopes of plots of integrated fluorescence intensity versus (1-10^−A) for samples having absorbance A≦0.1. The square of the refractive index (n^2) correction was applied when sample and reference compounds were in different solvents. Irradiation of the samples was minimized by the use of narrow excitation slits to reduce simultaneous photoisomerization.\nThe fluorescence quantum yields for E-CA4F were generally somewhat higher than for E-CA4."}, "[2]": {"tested_on": "Chinese hamster ovary (CHO) cells", "assay": "Fluorescence lifetime imaging (FLIM) of uptake and intracellular concentration in CHO cells", "description": "as §1, with “HUVECs were sub-cultured in basal medium (TCS Cellworks) supplemented with antibiotic supplement/amphotericin-B, following the detailed guidelines provided by TCS Cellworks.” left out\nThe fluorescence lifetime imaging system with multiphoton excitation employed lasers for multiphoton excitation consisting of a Ti:Sapphire laser, tuneable between 700 and 1000 nm and providing ca 180 fs pulses at 76 MHz, and an optical parametric oscillator (OPO) pumped by a second Ti:Sapphire laser source. […] Using the various microscope ports it was possible to record the fluorescence in a number of ways. The fluorescence signal at one port was relayed to a spectrometer (Acton 275) and CCD setup (Andor iDUS) so that emission spectra and intensities could be recorded. […] In FLIM mode the fluorescence was isolated by a suitable narrowband interference filter (400IU25 together with BG3 (Comar)). […]"}, "[3]": {"conditions": "room temperature, approximately 10 minutes"}},
  "data": [
    {"compound": "COc1ccc(/C=C/c2cc(OC)c(OC)c(OC)c2)cc1O", "note": "[E-CA4, (E)-1-(3′,4′,5′-Trimethoxyphenyl)-2-(4″-methoxy-3″-hydroxy-phenyl)ethene]", "values": [
      {"measurement": "Intracellular concentration as times the concentration in the medium", "setting": "HeLa cells", "result": "20-40 times"},
      {"measurement": "Intracellular concentration, smaller regions", "setting": "HeLa cells; [3]", "result": "> 4", "unit": "mM"},
      {"measurement": "Intracellular concentration, substantial regions of the cell cytoplasm", "setting": "HeLa cells; [3]", "result": "> 2", "unit": "mM"},
      {"measurement": "Fluorescence quantum yield φ", "setting": "[1]; DCM", "result": 0.19},
      {"measurement": "Fluorescence quantum yield φ", "setting": "[1]; DMSO", "result": 0.15},
      {"measurement": "Fluorescence quantum yield φ", "setting": "[1]; EtOH", "result": 0.093},
      {"measurement": "Fluorescence quantum yield φ", "setting": "[1]; Ethylene glycol", "result": 0.19},
      {"measurement": "Fluorescence quantum yield φ", "setting": "[1]; Glycerol", "result": 0.35},
      {"measurement": "Fluorescence quantum yield φ", "setting": "[1]; Hexane", "result": 0.36},
      {"measurement": "Fluorescence quantum yield φ", "setting": "[1]; MeCN", "result": 0.099},
      {"measurement": "Fluorescence quantum yield φ", "setting": "[1]; MeOH", "result": 0.071},
      {"measurement": "Concentrating of the drug, factor relative to the surrounding medium", "setting": "[2]; 10 μM in the medium", "result": "25-75 times"},
      {"measurement": "Intracellular distribution", "setting": "[2]; 10 μmol dm^−3, 2PE 628 nm", "result": "located mainly within the cytoplasmic region of the cell"}
    ]}
  ]
}
